Results published in patent US8962263B2, “Methods and compositions for detecting the activation state of multiple proteins in single cells” (The Board of Trustees of the Leland Stanford Junior …, priority 2001, dated 2015).

Tests used:
p44/42 MAPK = assay: intracellular phospho-p44/42 MAPK by flow cytometry in ICAM-2 treated Jurkat cells; format: cell-based, human; conditions: chemical agents 10 μM, EDTA 1 mM; mAbs titrated prior to ICAM-2
Source text: A) Mean fluorescent intensity values (MFI) of ICAM-2-FITC (adhesion) and mAb24-Alexa633, (LFA-1, activation) in treated Jurkat cells (as above). Control unstimulated and/or compound pretreated values were subtracted. B) Top panel: Intracellular phospho-p44/42, MAPK detection as a function of ICAM-2, dose in Jurkat cells by flow cytometry (see Material and Methods). Mean fluorescent intensity values (MFI) were plotted±standard deviation (SD). Bottom panel: ICAM-2, treated Jurkat cells were stained for intracellular phospho-p44/42, MAPK as described above. mAbs to β2, and αL, integrins (10, μg/ml, 10, minutes) were titrated prior to ICAM-2, treatment as indicated and plotted for MFI±SD. C) ICAM-2, induced p44/42, MAPK activity is blocked by β2, and αL, integrin antibodies as determined by a p44/42 MAPK kinase assay. Conditions for induction and inhibition are as described above. Recombinant active p44/42, MAPK served as an internal positive control (denoted by “+”). D) Inhibition and activation profile for intracellular phospho-p44/42, by flow cytometry in the presences of chemical agents (10, μM), EDTA (1, mM), or PMA, ionomycin and ICAM-2, stimulus (as indicated above). MFI values±SD are plotted.
(§1) Intracellular and extracellular staining was performed as described (Perez and Nolan, 2002). Intracellular probes for active kinases were made by conjugating phospho-specific antibodies to the ALEXA FLUOR® dye series as described and used in phospho-protein optimized conditions (Perez and Nolan, 2002). Kinetic analyses was performed by direct application of fixation buffer in time synchronized 96-wells maintained at 37° C. Intracellular actin and microtubule staining was performed using phalloidin-Alexa633 and taxol-Alexa546 dyes (Molecular Probes). Adhesion and clustering assays were performed using ICAM-2-FITC as described in text. LFA-1 activation was assessed by either mAb24-Alexa633 or mAb24-Alexa546 conjugate, surface stained at 37° C. Flow cytometry data are representative of 3 independent experiments of 10^6 cells/sample. 10-50,000 events were collected and manually calibrated on a FACSCalibur™ machine. Data plotted in bar graph format is expressed as geometric mean fluorescence intensity (MFI) and normalized for isotype controls. Log ratios are defined as the MFI of stimulus to the MFI of unstimulated cells. Data was analyzed using Flowjo™ software (Treestar).

NIH3T3 = assay: staurosporine induced apoptosis in ICAM-2 transduced NIH3T3 (annexin-V binding, BrdU TUNEL); format: cell-based, murine; conditions: for effect on ICAM-2 anti-apoptotic effect, other kinase inhibitors: cell type not stated, data not shown
Experimental: A) Pharmacological inhibitors of PI3K abrogate ICAM-2's anti-apoptotic. ICAM-2, or vector transduced BaF3, cells were treated with staurosporine (1, μM) with (unfilled) or without (filled) the addition of 100, nM wortmannin for 24, hours (left bar graph). Apoptosis was determined by nuclear staining and fluorescence microscopy (left bar graph) and by annexin-V binding assay (right bar graph). The proportion of apoptotic cells in each culture without staurosporine was 8%+/−2. The percentage of apoptotic cells is expressed as the mean (bar)+SD of triplicate cultures. ICAM-2, 1CAM2-AC, or vector transduced NIH3T3, were treated with staurosporine ([…]) in the presence or absence of 10, μM LY294002, for 24, hours (right bar graph). DMSO vehicle served as negative control. The percentage of apoptotic cells is expressed as the mean (bar)+/−SD of triplicate cultures. B) Confocal images of PI3K and AKT localization in ICAM-2, (top) or vector control cells (bottom). C) Confocal images of ezrin and the p85, subunit of PI3K (green) localization in ICAM-2, (top) or vector control cells (bottom).
A) The anti-apoptotic effect of ICAM-2, is both wortmannin and LY294002, sensitive. ICAM-2, or vector transduced BaF3, cells were treated with staurosporine (1, μM) with (unfilled) or without (filled) the addition of 100, nM wortmannin for 24 hours. Apoptosis was determined by nuclear staining and fluorescence microscopy (left bar graph) and by annexin-V binding assay (right bar graph). The proportion of apoptotic cells in each culture without staurosporine was 8%±2. The percentage of apoptotic cells is expressed as the mean (bar)±SD of triplicate cultures. ICAM-2, ICAM2-ΔC, or vector transduced NIH3T3, were treated with staurosporine (1, μM) in the presence or absence of 10, μM LY294002, for 24, hours. DMSO vehicle served as negative control. The percentage of apoptotic cells is expressed as the mean (bar)±SD of triplicate cultures. B) ICAM-2, expressing NIH3T3, cells are sensitive to apoptosis in the presence of PI3K inhibitor LY294002. BrdU TUNEL assay was performed in staurosporine (1, μM) or LY294002, (10, μM) treated ICAM-2, ICAM2-ΔC, and control vector transduced NIH3T3, cells. The percentage of apoptotic cells is expressed as the mean (bar)±SD of triplicate cultures.
Apoptosis was determined either by counting pyknotic nuclei, annexin-V binding by flow cytometry, or TUNEL BrdU staining by flow cytometry as indicated. Apoptosis was induced either by staurosporine (1 μm), treatment with anti-mouse Fas (5 μq/ml Santa Cruz Biotechnology (SCB), […] Fas (5 μg/ml Jo2 Biomed) or anti-human Fas (10 ng/ml CH11 Kamiya Biomedical) as indicated in appropriate experiment, IL-3 withdrawal-(24 hrs) or as indicated. For pyknolic nuclei count, NIH3T3 cells were grown on glass coverslips and assayed for apoptosis. Suspension cells were analyzed by nuclear staining with 25 μM acridine orange/25 μm ethidium bromide or 5 μg/ml Hoechst 33342 (Molecular Probes, Eugene, Oreg.). Apoptosis was identified by the presence of characteristic pyknotic nuclei as described (Jacobson and Raff, 1995). At least 5 individual fields were photographed and counted using a Zeiss axioscope fluorescence microscope. For the survival assay 10^6 NIH3T3 cells were plated in 10 cm dishes and incubated overnight at 37° C. The cells were treated with 1 μM staurosporine for 24 hours. The cells were washed and cultured for 24 hours in complete medium. The cells were trypsinized and viable cells counted following trypan blue staining. Untreated cells were counted at the time of treatment. % survival represents (number of viable cells post-treatment)/(number of viable cells pretreatment). FACS based annexin-V-FITC/PI staining was done as described (PharMingen). TUNEL assay was performed as described by manufacturer of Apoptosis BrdU kit (Promega). […]

LFA-1 [1] = assay: LFA-1 activation by mAb24-Alexa633 staining, flow cytometry; format: cell-based, human; conditions: Jurkat cells; agents 10 μM 30 min, PMA 1 μg/ml, prior to ICAM-2 10 μg/ml 30 min
Experimental: A) Confocal microscopy of actin and microtubule architecture upon ICAM-2, stimulus (10, μg/ml, 30, min) in Jurkat cells. Actin was stained by phalloidin-alexa633, and tubulin by taxol-alexa546. Inserts display enlarged cell image of representative treatment B) Flow cytometric staining for actin and microtubules as described above. C) Left: Fluorescence topography analysis of ICAM-2-FITC (1 μg/ml, time as indicated) surface distribution. Intensity color gradient depicts high and low fluorescent intensity values. Right: Confocal microscopy of ICAM-2-FITC surface binding (10 μg/ml, 30, min) and anti-β2-alexa568, (clone CTB104). D) Staining for ICAM-2-FITC surface binding (fluorescence intensity) and surface distribution (fluorescence pulse) in cytochalisin D treated Jurkat cells at 37° C. and 4° C. by flow cytometry. E) Values for ICAM-2-FITC fluorescence intensity per time-of-flight per cell as described in text. F) Flow cytometric staining for LFA-1 activation by mAb24-alexa633. Stimuli as indicated (10, μM, 30, min), PMA (1, μg/ml) prior to ICAM-2, stimulation (10, μg/ml, 30, min). Staining was performed at 37° C. G) Mean fluorescence intensity (MFI) values of mAb24-633, and ICAM-2, cluster values, computed as described above, as a function of time.
as §1

Pyk2 = assay: sICAM-2 induced Pyk2 phosphorylation (phospho-tyrosine based ELISA, chemical genetic approach); format: cell-based; conditions: phospho-tyrosine based ELISA
Source text: E) depicts that LFA-1, induced phosphorylation of Pyk2, and Syk is dependent on PKC. We screened for the inhibition of sICAM-2, induced Pyk2, and Syk phosphorylation by chemical inhibitors to tyrosine kinases using a phospho-tyrosine based ELISA. Pyk2, phosphorylation was abrogated in the presence of PKC inhibitors bisindolymaleimide II (BIM II) and staurosporine (STP), in addition to tyrphostin A9, a specific Pyk2, inhibitor. a Pyk2, phosphorylation was also affected by inhibitors of phospholipase Cg (neomycin), inhibitors of Syk (piceatannol), and PKC inhibitor BIM I. Syk phosphorylation was completely abolished by inhibition of Pyk2, PLCg1, and strongly affected by PKC inhibitors. Thus, both Pyk2, and Syk phosphorylations were dependent on PKC activity, while Syk phosphorylation was additionally dependent on PLCg1, and Pyk2, activity. It was not possible to assess specific PKC isozymes by this method.
A chemical genetic approach was undertaken to determine the hierarchy of PKC, Pyk2, PLCg1, and Syk activities in response to sICAM-2, stimulus by verifying phosphorylation status of each kinase in the presence of respective chemical inhibitors. Inhibition of PKC with BIM II abrogated phosphorylation of Pyk2, PLCg1, and Syk. Inhibition of PLCg1, by neomycin abrogated phosphorylation of Syk, with no inhibition observed for Pyk2. […] Thus, the upstream signaling events from LFA-1, to Raf-1, appear to involve PKC/Pyk2/PLCg1/Syk. […] We are currently pursuing these complexes in a separate study.

LFA-1 [2] = target: LFA-1 (Homo sapiens, UniProt P20701); conditions: cited from earlier work
Sequence of LFA-1 (Homo sapiens, UniProt P20701) (P20701 26-1170): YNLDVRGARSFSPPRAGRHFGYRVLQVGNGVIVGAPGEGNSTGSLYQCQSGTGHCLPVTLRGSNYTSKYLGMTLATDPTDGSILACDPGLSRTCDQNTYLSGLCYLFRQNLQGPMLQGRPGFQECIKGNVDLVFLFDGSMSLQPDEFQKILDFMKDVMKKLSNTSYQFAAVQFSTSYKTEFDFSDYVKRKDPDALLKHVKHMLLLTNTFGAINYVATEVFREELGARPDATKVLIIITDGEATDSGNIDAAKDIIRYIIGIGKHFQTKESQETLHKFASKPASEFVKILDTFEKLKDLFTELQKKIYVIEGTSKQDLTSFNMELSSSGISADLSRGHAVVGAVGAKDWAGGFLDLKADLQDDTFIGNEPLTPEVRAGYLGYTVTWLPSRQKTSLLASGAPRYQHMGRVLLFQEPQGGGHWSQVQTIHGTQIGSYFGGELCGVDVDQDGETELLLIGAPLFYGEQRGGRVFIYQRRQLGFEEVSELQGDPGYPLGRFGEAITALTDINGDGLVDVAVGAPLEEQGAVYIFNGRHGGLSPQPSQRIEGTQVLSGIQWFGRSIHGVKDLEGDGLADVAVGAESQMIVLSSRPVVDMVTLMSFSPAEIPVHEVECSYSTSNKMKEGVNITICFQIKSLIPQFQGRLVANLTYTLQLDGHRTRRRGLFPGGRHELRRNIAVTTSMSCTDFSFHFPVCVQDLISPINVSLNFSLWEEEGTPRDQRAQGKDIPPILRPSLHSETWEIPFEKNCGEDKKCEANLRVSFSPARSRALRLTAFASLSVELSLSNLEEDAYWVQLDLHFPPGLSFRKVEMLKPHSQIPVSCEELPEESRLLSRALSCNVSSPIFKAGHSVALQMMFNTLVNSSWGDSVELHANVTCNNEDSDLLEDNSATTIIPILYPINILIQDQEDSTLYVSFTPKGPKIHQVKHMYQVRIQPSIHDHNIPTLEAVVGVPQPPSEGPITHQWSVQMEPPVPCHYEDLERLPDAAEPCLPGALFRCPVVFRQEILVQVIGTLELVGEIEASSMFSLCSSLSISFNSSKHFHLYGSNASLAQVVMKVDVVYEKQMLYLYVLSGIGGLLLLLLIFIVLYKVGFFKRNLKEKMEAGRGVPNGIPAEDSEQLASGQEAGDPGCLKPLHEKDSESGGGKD
Sequence of LFA-1 (Homo sapiens, UniProt P20701) (P05107 23-769 partner): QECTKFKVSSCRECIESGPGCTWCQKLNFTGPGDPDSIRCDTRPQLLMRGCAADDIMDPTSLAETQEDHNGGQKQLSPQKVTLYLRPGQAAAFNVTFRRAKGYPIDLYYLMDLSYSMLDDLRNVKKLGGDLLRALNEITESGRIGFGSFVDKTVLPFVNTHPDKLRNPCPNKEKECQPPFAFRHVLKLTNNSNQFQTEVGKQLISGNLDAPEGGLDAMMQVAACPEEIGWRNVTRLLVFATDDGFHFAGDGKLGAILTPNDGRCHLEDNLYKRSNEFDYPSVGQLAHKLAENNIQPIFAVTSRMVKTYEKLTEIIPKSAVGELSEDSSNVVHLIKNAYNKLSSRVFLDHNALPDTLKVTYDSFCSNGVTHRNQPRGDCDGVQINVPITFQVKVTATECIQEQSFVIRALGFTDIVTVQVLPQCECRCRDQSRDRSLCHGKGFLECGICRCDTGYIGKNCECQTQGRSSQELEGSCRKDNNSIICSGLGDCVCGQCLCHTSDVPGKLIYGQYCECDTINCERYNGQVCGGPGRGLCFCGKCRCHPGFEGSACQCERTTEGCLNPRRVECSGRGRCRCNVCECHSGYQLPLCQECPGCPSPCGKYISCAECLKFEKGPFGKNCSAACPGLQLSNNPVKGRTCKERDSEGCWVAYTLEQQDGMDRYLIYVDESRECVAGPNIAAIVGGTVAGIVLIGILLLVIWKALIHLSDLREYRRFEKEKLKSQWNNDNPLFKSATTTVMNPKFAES

| Molecule | effect on ICAM-2 induced p44/42 MAPK phosphorylation (p44/42 MAPK) | effect on ICAM-2 anti-apoptotic effect, other kinase inhibitors (NIH3T3) | LFA-1 activation (mAb24 binding) (LFA-1 [1]) | further results |
| --- | --- | --- | --- | --- |
| O=C(O)CN(CCN(CC(=O)O)CC(=O)O)CC(=O)O [EDTA] | diminished |  |  |  |
| Cc1cc(O)c2c(c1)C(=O)c1cc(O)cc(O)c1C2=O [Emodin] | no effect |  |  |  |
| O=S(=O)(NCCNC/C=C/c1ccc(Br)cc1)c1cccc2cnccc12 [H-89] |  | not abrogated |  |  |
| CCCCCCCCCCCCCC(=O)O[C@@H]1[C@@H](C)[C@@]2(O)[C@@H](C=C(CO)C[C@]3(O)C(=O)C(C)=C[C@@H]23)[C@@H]2C(C)(C)[C@]12OC(C)=O [PMA, phorbol myristelated acetate] |  |  | induction |  |
| C[S+]([O-])c1ccc(-c2nc(-c3ccncc3)c(-c3ccc(F)cc3)[nH]2)cc1 (stereo not drawn) [SB 203580] |  | not abrogated |  |  |
| N#CC(=C(/N)Sc1ccccc1N)/C(C#N)=C(\N)Sc1ccccc1N [U0126] |  | not abrogated |  |  |
| COC(=O)Nc1nc2cc(C(=O)c3cccs3)ccc2[nH]1 [nocodazole] | diminished |  | full activation of LFA-1 |  |
| CN[C@@H]1C[C@H]2O[C@@](C)([C@@H]1OC)n1c3ccccc3c3c4c(c5c6ccccc6n2c5c31)C(=O)NC4 [staurosporine] |  |  |  | ICAM-2 induced survival signal (NIH3T3; PKC isozyme inhibitors, system not specified): did not abrogate; sICAM-2 induced Pyk2 phosphorylation (Pyk2): abrogated |
| CC(=O)O[C@H]1C(=O)[C@@]2(C)[C@H]([C@H](OC(=O)c3ccccc3)[C@]3(O)C[C@H](OC(=O)[C@H](O)[C@@H](NC(=O)c4ccccc4)c4ccccc4)C(C)=C1C3(C)C)[C@]1(OC(C)=O)CO[C@@H]1C[C@@H]2O [taxol] | diminished |  | full activation of LFA-1 |  |
| P1: synthesized peptide of ICAM-2's first Ig domain (P1, amino acids 21-42) (GSDEKVFEVHVRPKKLAVEPKG; UniProt P13598 21-42, looked up, fragment) |  |  |  | concentration inducing LFA-1 mediated adhesion (LFA-1 [2]; bulk cellular adhesion assay): 62 µM; calcium influx (LFA-1 [2]): did not induce calcium influx; induction of the active conformation of LFA-1 (LFA-1 [2]): did not induce the active conformation of LFA-1 |
